Reference: ChEMBL document CHEMBL1138955, “Novel gamma-secretase inhibitors discovered by library screening of in-house synthetic natural product intermediates” (Bioorg Med Chem Lett, 2006)

Legend:
Gamma-secretase [1] = test: Inhibition of beta amyloid protein 40; format: protein-complex assay, Homo sapiens
Gamma-secretase [2] = test: Inhibition of beta amyloid protein 42; format: protein-complex assay, Homo sapiens
[3] = molecular target: Gamma-secretase (Homo sapiens) (UniProt Q96BI3+Q9NZ42+Q8WW43+P49768+Q92542+P49810); test: Inhibition of beta amyloid protein 40 at 100 uM; format: protein-complex assay

Structure (SMILES) | IC50 (Gamma-secretase [1]) | IC50 (Gamma-secretase [2]) | inhibition [3]
CO[C@@H]1C(=O)CC(O)C[C@H]1OCc1ccccc1 (stereo partly drawn) | > 100 µM | > 100 µM | 
COC(=O)N1CCCC(=O)C1Cc1ccccc1 (stereo not drawn) | > 100 µM | > 100 µM | 
CO[C@@H]1C(=O)CCC[C@H]1OCc1ccccc1 | > 100 µM | > 100 µM | 
COC(=O)N1CC=CC(=O)C1Cc1ccccc1 (stereo not drawn) | 7.2 µM | 9.8 µM | 
CO[C@@H]1CCCC(=O)[C@H]1OCc1ccccc1 | 4.9 µM | 13.9 µM | 
O=C1C=CC[C@@H](OCc2ccccc2)[C@@H]1OCc1ccccc1 | 1.6 µM | 1.1 µM | 
O=C(OCc1ccccc1)N1CCCC(O)C1Cc1ccccc1 (stereo not drawn) | > 100 µM | > 100 µM | 
O=C1C=CCN(C(=O)c2ccccc2)C1Cc1ccccc1 (stereo not drawn) | 1 µM | 2.2 µM | 
CO[C@@H]1CC=CC(=O)[C@H]1OCc1ccccc1 | 6.9 µM | 10.2 µM | 
CO[C@@H]1CC(O)CC(=O)[C@H]1OCc1ccccc1 (stereo partly drawn) | > 100 µM | > 100 µM | 
O=C1CCC[C@@H](OCc2ccccc2)[C@@H]1OCc1ccccc1 | > 100 µM | > 100 µM | 
O=C1C=CCN(S(=O)(=O)c2ccccc2)C1Cc1ccccc1 (stereo not drawn) | 5.9 µM | 12.3 µM | 
O=C1C=CCN(C(=O)OCc2ccccc2)C1Cc1ccccc1 (stereo not drawn) | 4.6 µM | 7.4 µM | 
CO[C@@H]1C(=O)CCC[C@H]1O | > 100 µM | > 100 µM | 
CO[C@@H]1C(=O)C=CC[C@H]1OCc1ccccc1 | 33.9 µM | 26 µM | 
O=C1CCCN(C(=O)OCc2ccccc2)C1Cc1ccccc1 (stereo not drawn) |  | > 100 µM | 21%
CO[C@@H]1CCCC(=O)[C@H]1O | > 100 µM | > 100 µM | 
COC(=O)N1CCCC(O)C1Cc1ccccc1 (stereo not drawn) | > 100 µM | > 100 µM | 
O=C1C=CC(O)N(C(=O)OCc2ccccc2)C1Cc1ccccc1 (stereo not drawn) | 0.5 µM | 0.7 µM | 
